Laboratory results published in ChEMBL document CHEMBL1201862, “PubChem BioAssay data set” (2004).
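In this assay, cells in 96-well plates receive the compound at five concentrations for 48 hours. Endpoints are linearly interpolated between the surrounding concentrations. GI50 = concentration required for 50% inhibition of growth.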 The source made the active and inactive calls. Rule as the data show it: active = GI50 up to about 1.1 µM and inactive = higher.

Columns and labels:
Assay in all cases: NCI-60 cell line screen, 48 h
[1] = test system: HOP-62
[2] = test system: A498
[3] = test system: SNB-75
[4] = test system: U-251
[5] = test system: K562
[6] = test system: NCI-H522
[7] = test system: UACC-62
[8] = test system: UO-31
[9] = test system: SK-MEL-2
[10] = test system: TK-10
[11] = test system: HT-29
[12] = test system: IGROV-1
[13] = test system: HL-60
[14] = test system: RPMI-8226
[15] = test system: HCT-116
[16] = test system: SW-620
[17] = test system: SR

Measured: GI50

NC(=S)Nc1nnc(-c2ccc(-c3nnc(NC(N)=S)o3)cc2)o1
inactive: [1] > 100 µM | [2] > 100 µM | [3] > 100 µM | [4] > 100 µM | [5] > 100 µM | [6] > 100 µM | [7] > 100 µM | [8] > 100 µM | [9] > 100 µM | [10] > 100 µM | [11] > 100 µM | [12] > 100 µM | [13] > 100 µM | [14] > 100 µM | [15] > 100 µM | [16] > 100 µM

N=C(N)SCCc1cn2ccccc2n1
inactive: [1] > 100 µM | [3] > 100 µM | [4] > 100 µM | [5] > 100 µM | [6] > 100 µM | [8] > 100 µM | [9] > 100 µM | [10] > 100 µM | [11] > 100 µM | [17] > 100 µM | [13] > 100 µM | [14] > 100 µM | [15] > 100 µM | [16] > 100 µM

Cc1cc2c(cc1C)[n+]([O-])c(C(=O)/C=C/c1ccccc1Cl)c(C)[n+]2[O-]
inactive: [1] 24.6 µM | [2] 36.6 µM | [3] 19.2 µM | [4] 28.2 µM | [5] 37.9 µM | [6] 12.7 µM | [7] 18.3 µM | [8] 18 µM | [9] 27.5 µM | [10] 25.4 µM | [11] 34.8 µM | [12] 20.1 µM | [13] 29.9 µM | [14] 45 µM | [16] 35.1 µM

CN1C(=O)CCC1(O)C1C=CC=CC1 (stereo not given)
inactive: [1] > 100 µM | [3] > 100 µM | [4] > 100 µM | [5] > 100 µM | [6] > 100 µM | [7] > 100 µM | [8] > 100 µM | [10] > 100 µM | [11] > 100 µM | [12] > 100 µM | [17] > 100 µM | [13] > 100 µM | [14] > 100 µM | [15] > 100 µM | [16] > 100 µM

Cc1ccc(NC(=O)CCC(=O)C(C#N)c2ccccc2)cc1C (stereo not given)
inactive: [2] > 100 µM | [4] > 100 µM | [5] > 100 µM | [6] > 100 µM | [7] > 100 µM | [8] > 100 µM | [9] > 100 µM | [10] > 100 µM | [11] > 100 µM | [12] > 100 µM | [13] > 100 µM | [14] > 100 µM | [15] > 100 µM | [16] > 100 µM

COC(=O)CCC1(NS(=O)(=O)c2ccc(C)cc2)CCC(C(C)(C)C)CC1 (stereo not given)
inactive: [1] 17.3 µM | [2] 13.6 µM | [3] 14.3 µM | [4] 14.3 µM | [5] 4.91 µM | [6] 5.16 µM | [7] 11.9 µM | [8] 3.3 µM | [9] 17.3 µM | [10] 18 µM | [11] 13.8 µM | [12] 14.6 µM | [13] 3 µM | [14] 4.08 µM | [15] 7.74 µM | [16] 16.7 µM

COc1cc(C2C(Cl)C(=O)N2n2cnc3ccccc3c2=O)cc(OC)c1OC (stereo not given)
inactive: [1] > 100 µM | [3] 65.5 µM | [4] > 100 µM | [5] 20.3 µM | [6] > 100 µM | [7] 37.9 µM | [8] > 100 µM | [9] > 100 µM | [10] > 100 µM | [11] > 100 µM | [12] > 100 µM | [17] 31.2 µM | [13] 28.2 µM | [14] 77.8 µM | [15] > 100 µM | [16] 60.3 µM

COc1cc(CNc2ccc(C(C)C)cc2)cc(OC)c1OC
inactive: [1] 23.9 µM | [2] 30.4 µM | [3] 23.7 µM | [4] 15.4 µM | [5] 8.57 µM | [7] 16 µM | [8] 20.2 µM | [9] 13 µM | [10] 47.4 µM | [11] 16.9 µM | [12] 31 µM | [14] 14.4 µM | [15] 11.5 µM

O=C(N/C(=C\c1ccc([N+](=O)[O-])cc1)c1nc2ccccc2[nH]1)c1ccccc1
inactive: [1] > 100 µM | [2] > 100 µM | [4] 63.7 µM | [5] > 100 µM | [6] 64.7 µM | [7] > 100 µM | [8] 21.9 µM | [9] > 100 µM | [10] > 100 µM | [11] 95.7 µM | [12] > 100 µM | [13] 70.6 µM | [14] > 100 µM | [15] 72.4 µM | [16] > 100 µM

O=C1CC2CCCCC2=C1O (stereo not given)
inactive: [1] > 100 µM | [2] > 100 µM | [3] > 100 µM | [4] > 100 µM | [5] > 100 µM | [6] > 100 µM | [7] > 100 µM | [8] > 100 µM | [9] > 100 µM | [10] > 100 µM | [12] > 100 µM | [13] > 100 µM | [14] > 100 µM | [15] > 100 µM | [16] > 100 µM

C#CC1(O)CC(c2ccccc2)N(C)C(c2ccccc2)C1 (stereo not given)
inactive: [1] > 100 µM | [2] > 100 µM | [3] > 100 µM | [4] > 100 µM | [5] 78.9 µM | [6] > 100 µM | [7] > 100 µM | [8] 67.1 µM | [9] > 100 µM | [10] > 100 µM | [11] > 100 µM | [12] > 100 µM | [13] > 100 µM | [15] 18.4 µM | [16] > 100 µM

COc1cccc(NC(=O)/C(CS(=O)(=O)CCC(C(C)=O)C(C)=O)=N/NC(C)(C)C)c1
inactive: [1] > 100 µM | [2] > 100 µM | [3] > 100 µM | [4] > 100 µM | [5] > 100 µM | [6] > 100 µM | [7] > 100 µM | [8] > 100 µM | [9] > 100 µM | [10] > 100 µM | [11] > 100 µM | [12] > 100 µM | [13] > 100 µM | [14] > 100 µM | [15] > 100 µM | [16] > 100 µM

COc1ccc(OC)c(/C=C(/C#N)c2ccccc2)c1
inactive: [1] 40.3 µM | [2] 20.2 µM | [3] 10.8 µM | [4] 31.8 µM | [5] 3.15 µM | [6] 14 µM | [7] 5.32 µM | [9] 5.82 µM | [10] 28.4 µM | [11] 6.52 µM | [12] 31.7 µM | [13] 3.95 µM | [14] 13.4 µM | [15] 49.3 µM | [16] 6.46 µM
